Measurements published in US20250064756A1, “NANOCRYSTALLINE TIO2 AND ZNO ORGANOSELENIUM SCAFFOLDS POSSESING DISELENIDE (SE-SE) FUNCTIONALITY FOR BIOMEDICAL TECHNOLOGY” (KING FAISAL UNIVERSITY, priority 2023, published 2025).
“And” between values parts separate entries of the source, which are not always exact repeats. Identical values can stand only once.

Key:
Assay in all cases: Antimicrobial activity, agar diffusion assay
Format in all cases: cell-based
E. coli (−ve) = details: for A %: Cip. = 100
Protocol: (§1) All reagents and solvents used in these studies were purchased from Sigma and used without purification. Melting points (MP) were measured on the Gallenkamp apparatus in degrees centigrade. The IR spectra (KBr, λmax·cm^−1) were recorded on a Mattson spectrophotometer (5000 FTIR) at King Faisal University. The ^1H & ^13C NMR spectra were measured using Varian Spectrophotometer (400 MHz), employing DMSO-d6 as the solvent and TMS internal standard at Mansoura University. The chemical shifts (δ, ppm) were recorded regarding the solvent residual peaks. GC-MS-QP-100 EX Shimadzu apparatus was used for mass measurements at Cairo University. All biological tests were carried out at the Faculty of Pharmacy, Mansoura University. All cell lines and microorganisms were purchased from the VACSERA Company (ATCC), Cairo, Egypt. DPPH and ABTS probes were obtained from Sigma.
(§2) In General, the diaryl diselenide B manifested promising antimicrobial activity against E. coli (A %=83%), S. aureus (A %=86%), and C. Albicans (A %=88%).

S. aureus (+ve) = details: for A %: Cip. = 100
Protocol: as §1, §2

P. aeruginosa (−ve) = details: for A %: Cip. = 100
Protocol: as §1, §2

B. subtilis (+ve) = details: for A %: Cip. = 100
Protocol: as §1, §2

A. flavus = tested on: A. flavus
Protocol: as §1, §2

C. albicans = details: for A %: Col. = 100
Protocol: as §1, §2

SMILES	IZD (agar diffusion assay diameter) (E. coli (−ve))	A % (E. coli (−ve))	IZD (agar diffusion assay diameter) (S. aureus (+ve))	A % (S. aureus (+ve))	IZD (agar diffusion assay diameter) (P. aeruginosa (−ve))	A % (P. aeruginosa (−ve))	IZD (agar diffusion assay diameter) (B. subtilis (+ve))	A % (B. subtilis (+ve))	IZD (agar diffusion assay diameter) (A. flavus)	A % (A. flavus; Col. = 100)	IZD (agar diffusion assay diameter) (C. albicans)	A % (C. albicans)
O=C(O)c1cn(C2CC2)c2cc(N3CCNCC3)c(F)cc2c1=O [Cip., reference compound]	26 mm	100%	24 mm	100%	23 mm	100%	23 mm	100%	–	–	–	–
Nc1ccc([Se][Se]c2ccc(N)cc2)cc1 [Compound A]	14 mm	54% and 62% and 65%	17 mm	71%	11 mm	48%	15 mm	65%	8 mm	32%	12 mm	44%
COC(=O)c1cc([Se][Se]c2ccc(N)c(C(=O)OC)c2)ccc1N [Compound B, dimethyl 5,5-diselanediylbis(2-aminobenzoate)]	19 mm	83%	18 mm	86%	–	–	–	–	–	–	21 mm	88%
